Experimental data taken from US11324728B2, “Dosing regimens for the treatment of fungal infections” (Seren Pharmaceuticals Inc., priority 2017, dated 2022).
Values joined by “and” are separate entries in the source; they are usually repeats but may differ in a detail not shown here. Identical values can stand only once.

Tests used:
Format in all cases: in vivo
Details in all cases: Week 48
Trichophyton rubrum [1] = experiment: Identification of dermatophytes by PCR method: disappearance rate
Text: The efficacy endpoints were: (1) overall clinical efficacy; (2) changes over time in efficacy; (3) confirmation of elements of dermatophytes by direct microscopy; and (4) results of identification of dermatophytes by the polymerase chain reaction (PCR) method.

[2] = system: Trichophyton mentagrophytes; experiment: Overall clinical evaluation by identified species
Method: (§1) A Phase II clinical pharmacology study was conducted in subjects with onychomycosis of the toenail. The study investigated the pharmacokinetics, efficacy and safety of three different dosing regimens of fosravuconazole. […] The three treatment groups were as follows: • a.

Trichophyton rubrum [3] = experiment: Overall clinical evaluation by identified species
Method: as §1

C[C@@H](c1nc(-c2ccc(C#N)cc2)cs1)[C@@](Cn1cncn1)(OCOP(=O)(O)O)c1ccc(F)cc1F [fosravuconazole, 4-[2-[(1R,2R)-2-(2,4-difluorophenyl)-1-methyl-2-[(phosphonooxy)methoxy]-3-(1H-1,2,4-triazol-1-yl)propyl]-4-thiazolyl]benzo-nitrile]
Disappearance rate of Trichophyton rubrum (Trichophyton rubrum [1]; 100 mg (once daily dose) group): 57.1%
Disappearance rate of Trichophyton rubrum (Trichophyton rubrum [1]; 200 mg (pulse treatment) group): 36.8%
Disappearance rate of Trichophyton rubrum (Trichophyton rubrum [1]; 400 mg (pulse treatment) group): 52.1% and 52.0%
Cure rate and 95% CI ([2]; 100 mg): 0.0 %
Cured ([2]; 100 mg): 0
Failed ([2]; 100 mg): 0
Improved ([2]; 100 mg): 0
Markedly improved ([2]; 100 mg): 4
Slightly improved ([2]; 100 mg): 0
Cure rate and 95% CI ([2]; 200 mg): 0.0 %
Cured ([2]; 200 mg): 0
Failed ([2]; 200 mg): 0
Improved ([2]; 200 mg): 2
Markedly improved ([2]; 200 mg): 0
Slightly improved ([2]; 200 mg): 0
Cure rate and 95% CI ([2]; 400 mg): 0.0 %
Cured ([2]; 400 mg): 0
Failed ([2]; 400 mg): 0
Improved ([2]; 400 mg): 0
Markedly improved ([2]; 400 mg): 2
Slightly improved ([2]; 400 mg): 0
Cure rate and 95% CI (Trichophyton rubrum [3]; 100 mg): 47.6 %
Cured (Trichophyton rubrum [3]; 100 mg): 10
Failed (Trichophyton rubrum [3]; 100 mg): 0
Improved (Trichophyton rubrum [3]; 100 mg): 1
Markedly improved (Trichophyton rubrum [3]; 100 mg): 10
Slightly improved (Trichophyton rubrum [3]; 100 mg): 0
Cure rate and 95% CI (Trichophyton rubrum [3]; 200 mg): 31.6 %
Cured (Trichophyton rubrum [3]; 200 mg): 6
Failed (Trichophyton rubrum [3]; 200 mg): 0
Improved (Trichophyton rubrum [3]; 200 mg): 2
Markedly improved (Trichophyton rubrum [3]; 200 mg): 11
Slightly improved (Trichophyton rubrum [3]; 200 mg): 0
Cure rate and 95% CI (Trichophyton rubrum [3]; 400 mg): 44.0 %
Cured (Trichophyton rubrum [3]; 400 mg): 11
Failed (Trichophyton rubrum [3]; 400 mg): 0
Improved (Trichophyton rubrum [3]; 400 mg): 4
Markedly improved (Trichophyton rubrum [3]; 400 mg): 10
Slightly improved (Trichophyton rubrum [3]; 400 mg): 0
